Values of other authors as cited in publication PMC11579209, “Population pharmacokinetics and exposure–response relationships of maribavir in transplant recipients with cytomegalovirus infection” (Journal of Pharmacokinetics and Pharmacodynamics, 2024).

Key:
[1] = parameters: method as in PMID 12654667, doi:10.1016/j.bbmt.2018.12.600; settings: metabolite of maribavir; cited from earlier work
CMV = test system: CMV; parameters: method as in PMID 34674258; settings: through Week 24 or Week 14; cited from earlier work

## Nc1nc2cc(Cl)c(Cl)cc2n1[C@H]1O[C@@H](CO)[C@H](O)[C@@H]1O [VP44469]
[1]
  Pharmacological activity of metabolite: pharmacologically inactive

## COc1cccc(N2CCN(C3=Nc4c(F)cccc4[C@H](CC(=O)O)N3c3cc(C(F)(F)F)ccc3OC)CC2)c1 [letermovir]
CMV
  Exposure dependency of clinically significant CMV infection (CS-CMVi): no significant exposure dependencies
